# “Also recorded” adds a separate entry of the source. Read-outs that look alike come from different tables or passages of the source. Marks after values point to notes of the source that are not given here.
# How the values were obtained:
# [1] = tested on: folate receptor-positive KB cells
# Method: Inhibition of Cellular DNA Synthesis. The compounds described herein were evaluated using an in vitro cytotoxicity assay that predicts the ability of the drug to inhibit the growth of folate receptor-positive KB cells. The compounds were comprised of folate linked to a respective chemotherapeutic drug, as prepared according to the protocols described herein. The KB cells were exposed for up to 7 h at 37° C. to the indicated concentrations of folate-drug conjugate in the absence or presence of at least a 100-fold excess of folic acid. The cells were then rinsed once with fresh culture medium and incubated in fresh culture medium for 72 hours at 37° C. Cell viability was assessed using a ^3H-thymidine incorporation assay.
# (§1) In vitro test against the various cancer cell lines. Cells are heavily seeded in 24-well Falcon plates and allowed to form nearly confluent monolayers overnight. Thirty minutes prior to the addition of the test compound, spent medium is aspirated from all wells and replaced with fresh folate-deficient RPMI medium (FFRPMI). A subset of wells are designated to receive media containing 100 μM folic acid. The cells in the designated wells are used to determine the targeting specificity. […] Following one rinse with 1 mL of fresh FFRPMI containing 10% heat-inactivated fetal calf serum, each well receives 1 mL of medium containing increasing concentrations of test compound (4 wells per sample) in the presence or absence of 100 μM free folic acid as indicated. Treated cells are pulsed for 2 h at 37° C., rinsed 4 times with 0.5 mL of media, and then chased in 1 mL of fresh medium up to 70 h. Spent medium is aspirated from all wells and replaced with fresh medium containing 5 μCi/mL ^3H-thymidine. Following a further 2 h 37° C. incubation, cells are washed 3 times with 0.5 mL of PBS and then treated with 0.5 mL of ice-cold 5% trichloroacetic acid per well. After 15 min, the trichloroacetic acid is aspirated and the cell material solubilized by the addition of 0.5 mL of 0.25 N sodium hydroxide for 15 min. A 450 μL aliquot of each solubilized sample is transferred to a scintillation vial containing 3 mL of Ecolume scintillation cocktail and then counted in a liquid scintillation counter. Final tabulated results are expressed as the percentage of ^3H-thymidine incorporation relative to untreated controls.
# (§2) Folate receptor expressing cells. […] EC1456 was evaluated from 0.1-100 nM.
# [2] = tested on: IGROV1; assay: In vitro test against cancer cell lines, IGROV1; format: cell-based, Human
# Method: as §1, with “Following a further 2 h 37° C. incubation, cells are washed 3 times with 0.5 mL of PBS and then treated with 0.5 mL of ice-cold 5% trichloroacetic acid per well. After 15 min, the trichloroacetic acid is aspirated and the cell material solubilized by the addition of 0.5 mL of 0.25 N sodium hydroxide for 15 min.” left out
# as §2
# [3] = tested on: KB-CR tumors; assay: Cisplatin-resistant KB-CR tumor model; format: in vivo; details: 2 μmol/kg i.v., three times per week (M/W/F), 2 weeks
# [4] = tested on: MDA-MB-231; assay: In vitro test against cancer cell lines, MDA-MB-231; format: cell-based, Human
# Method: as §1, with “Following a further 2 h 37° C. incubation, cells are washed 3 times with 0.5 mL of PBS and then treated with 0.5 mL of ice-cold 5% trichloroacetic acid per well. After 15 min, the trichloroacetic acid is aspirated and the cell material solubilized by the addition of 0.5 mL of 0.25 N sodium hydroxide for 15 min.” left out
# as §2
# [5] = tested on: H23; assay: In vitro test against cancer cell lines, H23; format: cell-based, Human; details: H23, FR status −; evaluated from 0.1-100 nM
# Method: as §1, with “Following a further 2 h 37° C. incubation, cells are washed 3 times with 0.5 mL of PBS and then treated with 0.5 mL of ice-cold 5% trichloroacetic acid per well. After 15 min, the trichloroacetic acid is aspirated and the cell material solubilized by the addition of 0.5 mL of 0.25 N sodium hydroxide for 15 min.” left out
# as §2
# [6] = tested on: KB tumors; assay: KB tumor assay in nu/nu mice; details: for CR (%) / Cures (%) / PR (%) / Toxicity Deaths (%) / Toxicity Avg. Weight Loss: TIW
# Method: Inhibition of Tumor Growth in Mice. Four to seven week-old mice (Balb/c or nu/nu strains) were purchased from Harlan Sprague Dawley, Inc. (Indianapolis, Ind.). Normal rodent chow contains a high concentration of folic acid (6 mg/kg chow); accordingly, mice used were maintained on the folate-free diet (Harlan diet #TD00434) for 1 week before tumor implantation to achieve serum folate concentrations close to the range of normal human serum. For tumor cell inoculation, 1×10^6 M109 cells (Balb/c strain) or 1×10^6 KB cells (nu/nu strain) in 100 μL were injected in the subcutis of the dorsal medial area. Tumors were measured in two perpendicular directions every 2-3 days using a caliper, and their volumes were calculated as 0.5×L×W^2, where L=measurement of longest axis in mm and W=measurement of axis perpendicular to L in mm. […] Dosing solutions were prepared fresh each day in PBS and administered through the lateral tail vein of the mice.
# General KB Tumor Assay. The anti-tumor activity of the compounds described herein, when administered intravenously (i.v.) to tumor-bearing animals, was evaluated in nu/nu mice bearing subcutaneous KB tumors. Approximately 8 days post tumor inoculation in the subcutis of the right axilla with 1×10^6 KB cells (average tumor volume at to=50-100 mm^3), in mice (5/group) were injected i.v. three times a week (TIW), for 3 weeks with […] of the drug delivery conjugate or with an equivalent dose volume of PBS (control), unless otherwise indicated. Tumor growth was measured using calipers at 2-day or 3-day intervals in each treatment group. Tumor volumes were calculated using the equation V=a×b^2/2, where “a” is the length of the tumor and “b” is the width expressed in millimeters.
# Toxicity as Measured by Weight Loss. The percentage weight change of the mice was determined in mice (5 mice/group) on selected days post-tumor inoculation (PTI), and graphed.
# In vivo activity against tumors.
# [7] = Maximum tolerated dose (MTD); format: in vivo, female Sprague-Dawley rats
# From the text: Maximum tolerated dose (MTD). […] For Example, EC1456 has a MTD of at least 0.51 μmol/kg and EC0531 has a MTD of 0.33 μmol/kg, […] when administered by i.v., BIW, 2 wks in female Sprague-Dawley rats. Histopathologic changes were not observed with doses of EC1456 at or below the MTD.
# [8] = tested on: NCI/ADR-RES-Cl2; assay: In vitro test against cancer cell lines, NCI/ADR-RES-Cl2; format: cell-based, Human
# Method: as §1, with “Following a further 2 h 37° C. incubation, cells are washed 3 times with 0.5 mL of PBS and then treated with 0.5 mL of ice-cold 5% trichloroacetic acid per well. After 15 min, the trichloroacetic acid is aspirated and the cell material solubilized by the addition of 0.5 mL of 0.25 N sodium hydroxide for 15 min.” left out
# as §2
structure (smiles),measurement,setting,value
CCCC(=O)OCN(C(=O)[C@@H](NC(=O)[C@H]1CCCCN1C)[C@@H](C)CC)[C@H](C[C@@H](OC(C)=O)c1nc(C(=O)N[C@@H](Cc2ccc(O)cc2)C[C@H](C)C(=O)NNC(=O)OCCSSC[C@@H](NC(=O)[C@H](CCC(=O)NC[C@H](O)[C@@H](O)[C@H](O)[C@H](O)CO)NC(=O)[C@@H](CCC(=O)O)NC(=O)[C@H](CCC(=O)NC[C@H](O)[C@@H](O)[C@H](O)[C@H](O)CO)NC(=O)[C@@H](CCC(=O)O)NC(=O)[C@H](CCC(=O)NC[C@H](O)[C@@H](O)[C@H](O)[C@H](O)CO)NC(=O)CC[C@@H](NC(=O)c2ccc(NCc3cnc4nc(N)[nH]c(=O)c4n3)cc2)C(=O)O)C(=O)O)cs1)C(C)C [EC1456],improvement in specificity compared to EC0531,[1],4 fold
same,Competable up to 100 nM,[1]; KB,Yes
same,In vitro specificity (fold),[1]; difference in IC50 between competed and non-competed group,944 fold
same,specificity for the folate receptor as determined by folic acid competition,[1]; difference in IC50 between competed group and non-competed group,ca. 1000 fold
same,IC50,"[1]; read-out: 50% competition, competed group (excess folic acid)",1420 nM
same,IC50,"[1]; read-out: EC1456 Activity (IC50), KB, FR status +++, evaluated from 0.1-100 nM",2.3 nM
same,IC50,[1]; read-out: In vitro IC50,1.5 nM
same,Competable up to 100 nM,[2]; IGROV1,Yes
same,IC50,"[2]; IGROV1, FR status +, evaluated from 0.1-100 nM, read-out: EC1456 Activity (IC50)",0.72 nM
same,complete responses,[3],⅕
same,cures,[3],⅘
same,weight loss / host animal toxicity,[3],did not exhibit significant host animal toxicity; also recorded: did not cause any weight loss
same,Competable up to 100 nM,[4]; MDA-MB-231,Yes
same,IC50,"[4]; MDA-MB-231, FR status +, evaluated from 0.1-100 nM, read-out: EC1456 Activity (IC50)",0.47 nM
same,EC1456 Activity (IC50),[5],Inactive
same,In vivo activity,[6],Complete
same,CR (%),"[6]; 0.5 μmol/kg, 3 weeks",0%
same,Cures (%),"[6]; 0.5 μmol/kg, 3 weeks",0%
same,PR (%),"[6]; 0.5 μmol/kg, 3 weeks",60%
same,Toxicity Deaths (%),"[6]; 0.5 μmol/kg, 3 weeks",0%
same,Toxicity Avg. Weight Loss,"[6]; 0.5 μmol/kg, 3 weeks, untreated control group 2.4%",<5%*
same,CR (%),"[6]; 0.67 μmol/kg, 2 weeks",20%
same,Cures (%),"[6]; 0.67 μmol/kg, 2 weeks",0%
same,PR (%),"[6]; 0.67 μmol/kg, 2 weeks",60%
same,Toxicity Avg. Weight Loss,"[6]; 0.67 μmol/kg, 2 weeks",<2%
same,Toxicity Deaths (%),"[6]; 0.67 μmol/kg, 2 weeks",0%
same,specific activity mediated by the folate receptor,[6]; 1 μmol/kg TIW co-dosed with excess EC0923 (50 or 100 μmol/kg),competable with excess EC0923
same,whole animal toxicity (animal body weight),"[6]; 1 μmol/kg TIW, 2 wk",did not result in any observable gross toxicity; also recorded: does not show any evidence of whole animal toxicity
same,CR (%),"[6]; 1.0 μmol/kg, 2 weeks",0%
same,Cures (%),"[6]; 1.0 μmol/kg, 2 weeks",60%
same,PR (%),"[6]; 1.0 μmol/kg, 2 weeks",40%
same,Toxicity Avg. Weight Loss,"[6]; 1.0 μmol/kg, 2 weeks",<1.5%
same,Toxicity Deaths (%),"[6]; 1.0 μmol/kg, 2 weeks",0%
same,CR (%),"[6]; 2.0 μmol/kg, 2 weeks",0%
same,Cures (%),"[6]; 2.0 μmol/kg, 2 weeks",100%
same,PR (%),"[6]; 2.0 μmol/kg, 2 weeks",0%
same,Toxicity Avg. Weight Loss,"[6]; 2.0 μmol/kg, 2 weeks",<3%
same,Toxicity Deaths (%),"[6]; 2.0 μmol/kg, 2 weeks",0%
same,complete response (test animals),"[6]; intravenously 1 μmol/kg TIW, 2 wk",4/4
same,toxicity in relation to anti-tumor effect in mice,"[6]; mouse, in vivo",anti-tumor responses without significant toxicity
same,Histopathologic changes,[7]; doses at or below the MTD,not observed
same,improvement in MTD over EC0531,"[7]; i.v., BIW, 2 wks",65%
same,MTD,"[7]; rat, in vivo, iv, BIW, 2 wks",≥ 0.51 µmol/kg
same,Competable up to 100 nM,[8]; NCI/ADR-RES-Cl2,Yes
same,IC50,"[8]; NCI/ADR-RES-Cl2, FR status ++, evaluated from 0.1-100 nM, read-out: EC1456 Activity (IC50)",1.4 nM
